Test results: ChEMBL document CHEMBL2380238, “Synthesis, spectral and antimicrobial evaluation of some novel 1-methyl-3-alkyl-2,6-diphenylpiperidin-4-one oxime carbonates” (2013)
Values after ≈ are worked out from the molar mass of the structure shown. Active and inactive are the calls of the source. The rule behind the calls is not given here.

What was measured:
Format in all cases: functional
[1] = tested on: Fusarium; assay: Antifungal activity against Fusarium
[2] = tested on: Enterococcus faecalis; assay: Antibacterial activity against Streptococcus faecalis after 24 hrs by broth dilution method
[3] = tested on: Klebsiella pneumoniae; assay: Antibacterial activity against Klebsiella pneumoniae
[4] = tested on: Pseudomonas aeruginosa; assay: Antibacterial activity against Pseudomonas aeruginosa
[5] = tested on: Escherichia coli; assay: Antibacterial activity against Escherichia coli
[6] = tested on: Bacillus subtilis; assay: Antibacterial activity against Bacillus subtilis after 24 hrs by broth dilution method
[7] = tested on: Klebsiella pneumoniae; assay: Antibacterial activity against Klebsiella pneumoniae after 24 hrs by broth dilution method
[8] = tested on: Aspergillus niger; assay: Antifungal activity against Aspergillus niger
[9] = tested on: Enterococcus faecalis; assay: Antibacterial activity against Streptococcus faecalis
[10] = tested on: Pseudomonas aeruginosa; assay: Antibacterial activity against Pseudomonas aeruginosa after 24 hrs by broth dilution method
[11] = tested on: Aspergillus flavus; assay: Antifungal activity against Aspergillus flavus
[12] = tested on: Penicillium; assay: Antifungal activity against Penicillium after 72 to 96 hrs by broth dilution method
[13] = tested on: Rhizopus; assay: Antifungal activity against Rhizopus after 72 to 96 hrs by broth dilution method
[14] = tested on: Aspergillus flavus; assay: Antifungal activity against Aspergillus flavus after 72 to 96 hrs by broth dilution method
[15] = tested on: Bacillus subtilis; assay: Antibacterial activity against Bacillus subtilis
[16] = tested on: Escherichia coli; assay: Antibacterial activity against Escherichia coli after 24 hrs by broth dilution method
[17] = tested on: Aspergillus niger; assay: Antifungal activity against Aspergillus niger after 72 to 96 hrs by broth dilution method
[18] = tested on: Rhizopus; assay: Antifungal activity against Rhizopus
[19] = tested on: Fusarium; assay: Antifungal activity against Fusarium after 72 to 96 hrs by broth dilution method
[20] = tested on: Penicillium; assay: Antifungal activity against Penicillium

SMILES | MIC [2] [µg/mL] | MIC [6] [µg/mL] | MIC [7] [µg/mL] | MIC [10] [µg/mL] | MIC [12] [µg/mL] | MIC [13] [µg/mL] | MIC [14] [µg/mL] | MIC [16] [µg/mL] | MIC [17] [µg/mL] | MIC [19] [µg/mL] | inhibition zone (IZ) [1] | inhibition zone (IZ) [3] | inhibition zone (IZ) [4] | inhibition zone (IZ) [5] [mm] | inhibition zone (IZ) [8] | inhibition zone (IZ) [9] | inhibition zone (IZ) [11] | inhibition zone (IZ) [15] [mm] | inhibition zone (IZ) [18] | inhibition zone (IZ) [20]
CCOC(=O)O/N=C1\CC(c2ccccc2)N(C)C(c2ccccc2)C1CC (stereo not given) | 100 (≈ 263 µM) | 25 (≈ 65.7 µM) | 200 (≈ 526 µM) | 200 (≈ 526 µM) | 200 (≈ 526 µM) | 100 (≈ 263 µM) | 200 (≈ 526 µM) | 25 (≈ 65.7 µM) | 200 (≈ 526 µM) | 200 (≈ 526 µM) | inactive | inactive | inactive | 12 | inactive | 12 mm | inactive | 12 | 12 mm | inactive
CCOC(=O)O/N=C1\CC(c2ccccc2)N(C)C(c2ccccc2)C1C (stereo not given) | 200 (≈ 546 µM) | 50 (≈ 136 µM) | 200 (≈ 546 µM) | 200 (≈ 546 µM) | 200 (≈ 546 µM) | 200 (≈ 546 µM) | 100 (≈ 273 µM) | 50 (≈ 136 µM) | 200 (≈ 546 µM) | 200 (≈ 546 µM) | inactive | inactive | inactive | 12 | inactive | inactive | 12 mm | 12 | inactive | inactive
C[C@@H]1[C@H](O)[C@@H](C)/C=C/C=C/C=C/C=C/C=C/C=C/C=C/[C@H](O[C@@H]2O[C@H](C)[C@@H](O)[C@H](N)[C@@H]2O)C[C@@H]2O[C@](O)(C[C@@H](O)C[C@@H](O)[C@H](O)CC[C@@H](O)C[C@@H](O)CC(=O)O[C@H]1C)C[C@H](O)[C@H]2C(=O)O [AMPHOTERICIN B] |  |  |  |  | 25 (≈ 27.1 µM) | 25 (≈ 27.1 µM) | 50 (≈ 54.1 µM) |  | 50 (≈ 54.1 µM) | 25 (≈ 27.1 µM) | 22 mm |  |  |  | 21 mm |  | 22 mm |  | 21 mm | 22 mm
CN[C@@H]1[C@H](O[C@H]2[C@H](O[C@H]3[C@H](O)[C@@H](O)[C@H](N=C(N)N)[C@@H](O)[C@@H]3N=C(N)N)O[C@@H](C)[C@]2(O)C=O)O[C@@H](CO)[C@H](O)[C@H]1O [STREPTOMYCIN] | 50 (≈ 86 µM) | 12.5 (≈ 21.5 µM) | 25 (≈ 43 µM) | 25 (≈ 43 µM) |  |  |  | 12.5 (≈ 21.5 µM) |  |  |  | 26 mm | 26 mm | 28 |  | 22 mm |  | 28 |  | 

More lines, main results first:

MIC [2] [µg/mL] | MIC [6] [µg/mL] | MIC [7] [µg/mL] | MIC [10] [µg/mL] | MIC [12] [µg/mL] | MIC [13] [µg/mL] | MIC [14] [µg/mL] | MIC [16] [µg/mL] | MIC [17] [µg/mL] | MIC [19] [µg/mL] | SMILES | inhibition zone (IZ) [1] | inhibition zone (IZ) [3] | inhibition zone (IZ) [4] | inhibition zone (IZ) [5] [mm] | inhibition zone (IZ) [8] | inhibition zone (IZ) [9] | inhibition zone (IZ) [11] | inhibition zone (IZ) [15] [mm] | inhibition zone (IZ) [18] | inhibition zone (IZ) [20]
25 (≈ 56.5 µM) | 25 (≈ 56.5 µM) | 6.25 (≈ 14.1 µM) | 6.25 (≈ 14.1 µM) | 25 (≈ 56.5 µM) | 25 (≈ 56.5 µM) | 50 (≈ 113 µM) | 25 (≈ 56.5 µM) | 50 (≈ 113 µM) | 25 (≈ 56.5 µM) | CC(C)C1/C(=N/OC(=O)Oc2ccccc2)CC(c2ccccc2)N(C)C1c1ccccc1 (stereo not given) | 17 mm | 22 mm | 22 mm | 17 | 12 mm | 17 mm | 17 mm | 17 | 17 mm | 17 mm
50 (≈ 127 µM) | 12.5 (≈ 31.7 µM) | 200 (≈ 507 µM) | 200 (≈ 507 µM) | 200 (≈ 507 µM) | 200 (≈ 507 µM) | 100 (≈ 253 µM) | 12.5 (≈ 31.7 µM) | 200 (≈ 507 µM) | 200 (≈ 507 µM) | CCOC(=O)O/N=C1\CC(c2ccccc2)N(C)C(c2ccccc2)C1C(C)C (stereo not given) | inactive | inactive | inactive | 17 | inactive | 12 mm | 12 mm | 12 | inactive | inactive
